Measurements from article PMC11587505, “Identification and In Vitro and In Vivo Characterization of KAC-50.1 as a Potential α-Synuclein PET Radioligand” (ACS Chemical Neuroscience, 2024).

Target: T1, α-synuclein (recombinant fibrils) (Homo sapiens, UniProt P37840)
T1 construct: gene SNCA; recombinant human α-syn fibrils (pET-3a construct)
Experiment: radioligand saturation binding (filtration) on recombinant fibrils

Q: Which Kd does the source give for `COc1ccc(/C=C/c2cn(-c3ccccc3)nn2)cc1` [50.1, KAC-50.1] here?
A: 35 nM
